Experimental data reported in patent publication US11725036B2, “Modified lipidated relaxin B chain peptides and their therapeutic use” (Sanofi, priority 2018, dated 2023).
Converted amounts (≈) assume the structure as drawn. Like-named read-outs stand apart in the source and are kept apart here. Starred links: 1 amine or outer side, 2 acyl side, 3 side chain; linkers in the order of their positions; H or OH if unused. Non-standard residues stand in square brackets, D forms with d. Residues, ends and D or L forms follow the SMILES beside them. Groups on a side chain read outwards from the residue. *: point of attachment. X3 = CCCCCCCCCCCCCCCCCC(=O)N[C@@H](CCC(=O)N[C@@H](CCC(=O)N[C@@H](CCC(=O)NCCCOCCOCCOCCCNC(=O)CCC(=O)NCCCOCCOCCOCCCNC(=O)CCC(=O)NCCCOCCOCCOCCCN*)C(=O)O)C(=O)O)C(=O)O; Suc = O=C(CCC(=O)[*:2])[*:1]; Aib = CC(C)(N)C(=O)O

Experiments:
RXFP1 = molecular target: T1, RXFP1 (Homo sapiens, UniProt Q9HBX9); assay: OVCAR5 cAMP assay (HTRF); format: cell-based
T1 construct: OVCAR5 cells expressing endogenous RXFP1; endogenous in cells; host or cells: OVCAR5
T1 sequence (Q9HBX9 1-757): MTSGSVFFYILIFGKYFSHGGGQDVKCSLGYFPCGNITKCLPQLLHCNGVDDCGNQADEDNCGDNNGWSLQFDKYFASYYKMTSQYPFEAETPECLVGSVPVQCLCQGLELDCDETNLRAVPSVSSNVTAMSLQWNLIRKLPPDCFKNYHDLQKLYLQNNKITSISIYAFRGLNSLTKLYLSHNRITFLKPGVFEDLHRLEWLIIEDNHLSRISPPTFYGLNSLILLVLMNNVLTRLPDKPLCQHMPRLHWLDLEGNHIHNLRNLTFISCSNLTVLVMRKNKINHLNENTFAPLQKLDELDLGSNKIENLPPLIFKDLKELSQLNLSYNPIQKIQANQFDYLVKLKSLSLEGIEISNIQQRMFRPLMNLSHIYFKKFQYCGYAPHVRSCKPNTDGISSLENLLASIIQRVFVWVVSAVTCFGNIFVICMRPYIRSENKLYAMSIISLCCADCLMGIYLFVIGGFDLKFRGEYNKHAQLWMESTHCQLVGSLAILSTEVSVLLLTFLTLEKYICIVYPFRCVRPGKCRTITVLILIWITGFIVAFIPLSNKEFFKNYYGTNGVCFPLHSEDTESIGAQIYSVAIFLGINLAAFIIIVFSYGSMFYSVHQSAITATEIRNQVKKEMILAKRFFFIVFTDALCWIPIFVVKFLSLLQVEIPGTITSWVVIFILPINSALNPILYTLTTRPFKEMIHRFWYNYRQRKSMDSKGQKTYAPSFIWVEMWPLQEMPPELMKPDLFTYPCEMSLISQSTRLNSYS
Outline: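 Endogenous RXFP1 in OVCAR5 cells, pretreated 40 min at 37° C with 1 mM IBMX, then exposed to increasing peptide concentrations in serum-free medium for 30 min at 37° C. cAMP read by HTRF; EC50 by variable-slope sigmoidal fit, Emax as % of H2-relaxin maximal cAMP in same run.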

[1] = Solubility testing in buffer; format: physicochemical; settings: target solubility 10.0 mg/ml
[2] = Stability in human plasma; format: in vitro ADME
Method: (§1) Prior to the testing of stability in plasma (or blood) of a peptide batch, its purity (HPLC-UV) was determined.
(§2) Rat and Human plasma: anti-coagulant sodium or lithium heparin.
(§3) 100 μM solution of study compound in 50 mM phosphate buffer pH 7.4.
(§4) 950 μL plasma (or blood) was pre-incubated for 5 min at 37° C. 50 μL of compound stock solution was added. Final compound concentration=5 μM. Vortex and transfer 150 μL plasma (or blood) into an Eppendorf for each time point. The time points […] were carried out in duplicate for each species.
(§5) After incubation, 150 μL plasma (or blood) was extracted with 600 μL Acetonitrile containing 1% TFA. Said mixture was then vortexed and centrifuged 10 min at 14600 rpm. 200 μL supernatant was dried under N2. Sample was then reconstituted in 200 μL of H2O/CH3CN 98/2+0.1% FA+50 ng/ml Labetalol and analyzed using the analytical system used in solubility and stability studies.
(§6) For determination of the amount of the remaining peptide, the peak areas of the target compound at t0 and each time point […] were compared, resulting in “% remaining peptide”, following the equation: % remaining peptide=[(peak area peptide time)×100]/peak area peptide t0. The stability was expressed as “% remaining peptide”.

Stability in rat plasma = format: in vitro ADME
Method: as §1, §2, §3, §4, §5, §6

in vivo = assay: in vivo; parameters: species or system Sprague Dawley rats; settings: Sprague Dawley, rat
Method: Prior to the testing of a peptide batch, its purity (HPLC-UV) was determined. Dose was corrected for presence of salts, solvent and purity. Bioanalytical screening method for quantification of peptides in rat: Sprague Dawley rats were dosed with study peptide at a dose of 1 mg/kg intravenously (i.v.) or 3 mg/kg subcutaneously (s.c.) as a solution in PBS (0.2 mg/ml and 0.6 mg/ml respectively). Blood samples were collected after: 0.083, 0.25, 0.5, 1, 2, 4, 8, 24, 48 and 72 h (i.v. route) and 0.25, 0.5, 1, 2, 4, 6, 8, 10, 24, 48 and 72 h (s.c route) post application. Plasma samples were analyzed after protein precipitation via liquid chromatography mass spectrometry (LC/MS). PK parameters and half-life were calculated using Phoenix 64 (WinNonlin 6.4)-Pharsight (Certara™) (non-compartment model). Values below the limit of quantification (BLQ) were replaced by zero for subsequent calculations and PK analysis. T½: in-vivo half-life, time required for test compound plasma concentration to be divided by two during the PK experiment. C0: Extrapolated test compound plasma concentration at t=0 time point (i.v. route). Cmax: maximal test compound plasma concentration at the indicated time point (s.c. route). Tmax: Time point where Cmax was attained. F %: s.c. vs i.v. bioavailability, dose-corrected area under curve (AUC) s.c. route divided by AUC i.v.

EC50 (RXFP1; OVCAR 5 cells expressing endogenous RXFP1, cAMP readout): 0.15 nM
Emax (RXFP1; OVCAR 5 cells, maximal cAMP relative to H2-relaxin): 96%
solubility ([1]; acetate buffer 50 mM pH 4.5, read-out: Solubility Acetate buffer pH 4.5): 9340 µg/mL (≈ 2110 µM)
solubility ([1]; phosphate buffer 50 mM pH 7.4, read-out: Solubility phosphate buffer pH 7.4): 9950 µg/mL (≈ 2250 µM)
Human Plasma stability % remaining ([2]; T = 0, 37° C., 5 μM): 87%
remaining at 1 h, 5 μM ([2]; human, plasma (sodium or lithium heparin), 1 h, 37° C.): 100%
remaining at 4 h, 5 μM ([2]; human, plasma (sodium or lithium heparin), 4 h, 37° C.): 83%
Rat plasma stability % remaining (Stability in rat plasma; T = 0, 37° C., 5 μM): 100%
remaining at 1 h, 5 μM (Stability in rat plasma; rat, plasma (sodium or lithium heparin), 1 h, 37° C.): 100%
C0 (in vivo; iv, 1 mg/kg): 3090 nM
T½ (h), in-vivo half-life (in vivo; iv, 1 mg/kg): 5.13 h
bioavailability (in vivo; sc): 80%
Cmax (in vivo; sc, 3 mg/kg): 1990 nM
Tmax (in vivo; sc, 3 mg/kg): 10 h
SMILES: CCCCCCCCCCCCCCCCCC(=O)N[C@@H](CCC(=O)N[C@@H](CCC(=O)N[C@@H](CCC(=O)NCCCOCCOCCOCCCNC(=O)CCC(=O)NCCCOCCOCCOCCCNC(=O)CCC(=O)NCCCOCCOCCOCCCNC(=O)CCC(=O)NCCCC[C@H](NC(=O)CNC(=O)[C@H](CCC(=O)O)NC(=O)C(C)(C)NC(=O)C(C)(C)NC(=O)[C@@H](NC(=O)[C@H](CCCCNC(C)=O)NC(=O)[C@H](C)NC(=O)[C@H](CCCNC(=N)N)NC(=O)[C@@H](NC(=O)[C@H](CCCCN)NC(=O)[C@H](CCC(=O)O)NC(=O)[C@H](CCCNC(=N)N)NC(=O)CNC(=O)[C@H](CCC(=O)O)NC(=O)[C@H](CC(C)C)NC(C)=O)C(C)C)[C@@H](C)CC)C(=O)N[C@@H](CO)C(=O)N[C@H](C(=O)N[C@@H](Cc1c[nH]c2ccccc12)C(=O)N[C@@H](CO)C(=O)NC(C)(C)C(=O)N[C@@H](CCCNC(=N)N)C(=O)N[C@@H](CCCCN)C(=O)N[C@@H](CCCCNC(C)=O)C(N)=O)[C@@H](C)O)C(=O)O)C(=O)O)C(=O)O [compound 20] (Ac-LEGREKVRAK(Ac)I[Aib][Aib]EGK([Suc-X3])STWS[Aib]RKK(Ac)-NH2)
